Test results: patent US11708391B2, “Rapaglutins, novel inhibitors of GLUT and use thereof” (The Johns Hopkins University, priority 2016, dated 2023)
Entries after “also recorded” stand apart in the source; their conditions may differ. Where two headings read alike, the source gives them in different places.

Columns and labels:
A549 lung cancer cells = assay: alamar blue cell viability assay, A549; type: cell-based, human
Excerpt: FIG. 9. Heat map of the screening results. Scale: 0 (red), complete inhibition; 1 (green), no inhibition. Screening of the rapafucin library for toxicity hits against A549 lung cancer cells using alamar blue assay.
A 45,000 compound and 3000 pool rapafucin library were screened using the alamar blue cell viability assay with the human non-small cell lung cancer (NSCLC) cell line A549. […] Several potent rapafucin hits were discovered to inhibit cell proliferation of A549. […] Each was resynthesized on preparative scale, purified by silica gel chromatography, followed by HPLC purification, and subjected to a series of detailed structure characterization (schemes I and II; FIGS. 10-14).
Dose-dependent inhibition of cell proliferation by A18 and E11 was next evaluated in several other human cancer cell lines, including breast cancer HCC1954, pancreatic cancer PANC10.05, leukemia Jurkat T and colon cancer RKO (FIGS. 1b and 1c). […] (FIGS. 1 and 9; Table 3)

glucose transporters = tested on: T1, glucose transporters; assay: 3-O-methyl-D-[3H] glucose uptake in A549 cells; type: cell-based, human; settings: read-out: IC50 uptake of 3H-labeled 3-O-methylglucose
T1 construct: IC50 uptake of 3H-labeled 3-O-methylglucose; other: A549 cells; compared with 3-O-methylglucose uptake; other: A549 cells treated with drugs for 1 min; other: A549 cells, glucose uptake assay; other
Experimental: FIGS. 2A-2D. Inhibition of Glucose Transport by A18 and E11. (a) Inhibition of 3-O-methyl¬D-[3H] glucose uptake in A549 cells by A18. (b) Inhibition of 3-O-methyl-D-[3H] glucose uptake in A549 cells by E11. (c) Inhibition of 2-deoxy-D-[3H] glucose uptake in A549 […] cells by A18. (d) Inhibition of 2-deoxy-D-[3H] glucose uptake in A549 cells by E11.
Direct action on glucose transporters was measured by monitoring uptake of 3H-labeled 3-O-methylglucose, which is transported by glucose transporters but not metabolized further, allowing the assessment of initial rate of glucose uptake. […] Initial uptake can also be assessed by measuring the uptake of 3H-labeled 2-deoxy-D-glucose, which gets into the cell through glucose transporters and is phosphorylated by hexokinase but cannot be metabolized further due to the lack of oxygen at the second position.

GLUT1 [1] = target: T2, GLUT1 (Homo sapiens, UniProt P11166); assay: 3-O-methyl-D-[3H] glucose uptake in human red blood cells; type: cell-based; settings: RBCs; read-out: IC50 3H-labeled 3-O-methylglucose uptake
T2 construct: endogenous in cells; host or cells: erythrocyte (RBC-derived) ghosts
T2 sequence (P11166 1-492): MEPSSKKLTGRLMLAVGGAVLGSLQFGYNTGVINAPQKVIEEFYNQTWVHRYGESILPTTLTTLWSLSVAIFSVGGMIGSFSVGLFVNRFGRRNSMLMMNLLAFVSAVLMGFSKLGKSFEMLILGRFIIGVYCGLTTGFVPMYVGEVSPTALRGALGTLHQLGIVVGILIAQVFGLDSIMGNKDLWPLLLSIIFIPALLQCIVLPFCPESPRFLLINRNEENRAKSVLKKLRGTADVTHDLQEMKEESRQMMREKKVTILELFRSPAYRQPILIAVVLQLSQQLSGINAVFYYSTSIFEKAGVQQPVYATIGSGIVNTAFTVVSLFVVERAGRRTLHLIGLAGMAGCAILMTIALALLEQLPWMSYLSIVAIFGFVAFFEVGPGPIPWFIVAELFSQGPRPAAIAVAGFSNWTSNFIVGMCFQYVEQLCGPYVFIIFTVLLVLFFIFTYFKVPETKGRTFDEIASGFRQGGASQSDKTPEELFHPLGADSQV
Excerpt: FIGS. 3A-3D. Inhibition of Glucose Transport by A18 and E11. (a) Inhibition of 3-O-methyl-D-[3H] glucose uptake in human red blood cells by A18. (b) Inhibition of 3-O-methyl-D-[3H] glucose uptake in human red blood cells by E11. (c) Inhibition of 3-O-methyl-D-[3H] glucose uptake in erythrocyte ghosts by A18. (d) Inhibition of 3-O-methyl-D-[3H] glucose uptake in erythrocyte ghosts by E11.
A18 and E11 were previously shown to have a broad spectrum of anticancer activity. […] To test this hypothesis, red blood cells (RBCs) were applied as a cell model because RBCs express Glut1 as their sole glucose transporter and have been frequently used in studying glucose transport. […] To eliminate other possibilities, the glucose uptake assays were repeated in RBC-derived ghosts, in which all the intracellular proteins and enzymes were removed and only membrane-bound and membrane-associated proteins remained. […] (see FIGS. 2, 3 and 15-18)

GLUT1 [2] = target: T2, GLUT1; assay: pulldown with biotin-rapafucin conjugates from RBC-derived ghosts lysate, anti-GLUT1 Western blot; type: binding; settings: for binding to GLUT1 in pulldown assay: RBC-derived ghosts cell lysate, Western blot; for competition of the binding of the other rapafucin's probe to GLUT1: pulldown, A18 probe versus E11 and vice versa
Excerpt: FIGS. 6A-6B. Identification of direct interaction of A18 and E11 to Glut1. Glut1 protein levels of A18 (a) or E11 (b) pull down samples analyzed by western blotting.
After showing that GLUT1 was very likely to be the target of A18 and E11, the direct interaction of A18 and E11 to GLUT1 was then examined. A series of biotin or diazrine-alkyne rapafucin conjugates through different positions were synthesized. […] Importantly, the binding of the biotin-rapafucin probe to GLUT1 is competed by rapafucin. […] (FIGS. 6, 21, 22 and 27)

HEK 293T = assay: flow cytometric cell cycle analysis in HEK 293T; type: cell-based; settings: 5 μM, 24 h
Experimental: FIGS. 25A-25C. A18 and E11 inhibit cell cycle progression in the S phase. HEK 293T were incubated with DMSO (a), 5 μM A18 (b) or 5 μM E11 (c) for 24 h before they were harvested for cell cycle analysis.

ERK, AKT or JNK = assay: Western blot, phosphorylation of ERK, AKT or JNK; type: cell-based
Excerpt: Whether A18 and E11 treatment affect key cell growth signaling proteins was examined next. […] But it has no effects on the phosphorylation of ERK, AKT or JNK (FIG. 7). As previously reported, AMPK is likely to act as the key link between the ATP reduction and the subsequent cancer cell inhibition. (FIGS. 7 and 23-25). Based on the data reported here, the working model for A18 and E11 was proposed as outlined in FIG. 8. […] These led to upregulation of phosphorylation of AMPK and downregulation of phosphorylation of S6K. […] (FIG. 8)

NFAT = NFAT reporter gene assay; type: cell-based
Excerpt: (§1) FIGS. 28A-28D. (a) A18 and E11 inhibit NFAT and A18, but not E11, stimulates SRE reporter gene signal. (b) E11 inhibits NFAT, NF-κB and IL2, but not MEF-2 or AP-1 pathways, in Jurkat T cells. (c) Glucose inhibitor stimulates SRE reporter gene signal.
(§2) Both A18 and E11 have shown immunosuppressive activity, blocking NFAT reporter gene activation and IL-2 production (see e.g., FIG. 28). As such, they can be used as immunosuppressive agents that have applications in treating organ transplantation rejection and all kinds of autoimmune diseases. […]

IL2 = IL2 reporter / IL-2 production in Jurkat T cells; type: cell-based
Excerpt: as §1, §2

Row | Compound | IC50 (A549 lung cancer cells) [nM] | IC50 (glucose transporters) [nM] | IC50 (GLUT1 [1]) [nM] | binding to GLUT1 in pulldown assay (GLUT1 [2]) | competition of the binding of the other rapafucin's probe to GLUT1 (GLUT1 [2]) | additional cells in S phase (HEK 293T) | phosphorylation of ERK, AKT or JNK (ERK, AKT or JNK) | NFAT reporter gene signal (NFAT) | IL-2 production (IL2) | IL2 pathway (IL2; Jurkat T cells) | IC50 (A549 lung cancer cells; Homo sapiens) [nM]
1 | Gly-^MSerBu-Nal-^MAla [E11] | 367 | 38.2 | 74.2 | can bind directly to GLUT1 | cannot be competed | approximately 10% | no effects | inhibit; also recorded: blocking | blocking | inhibits | –
2 | CC[C@@H](C)[C@H]1C(=O)NCC(=O)N(C)CC/C=C/C(=O)OCC(C)(C)C(=O)C(=O)N2CCCC[C@H]2C(=O)O[C@H](CCc2ccc(OC)c(OC)c2)c2cccc(c2)NC(=O)CCC(=O)N(C)[C@@H](CC(C)C)C(=O)N[C@H](Cc2ccccc2)C(=O)N1C [A18] | – | 18.7 | 34.2 | can bind directly to GLUT1 | vice versa | approximately 10% | no effects | inhibit; also recorded: blocking | blocking | – | 189
